Measured values: patent publication US20190144867A1, “METHOD FOR MITIGATING METASTASIS” (RESEARCH FOUNDATION OF THE CITY UNIVERSITY OF NEW YORK, priority 2015, published 2019)

Test system: SN12L1 metastatic renal carcinoma cells
Test: Modified Boyden chamber 3D migration/invasion with interstitial flow
Format: cell-based, human
Settings: for normalized migration response to interstitial flow with MAPK signaling inhibitors: flow normalized to no-flow controls, FIG. 5; for migration response to interstitial flow following GAG enzymatic cleavage: 4h and 24h exposure to interstitial flow, normalized by no-flow controls
Protocol: A modified Boyden chamber was used to apply interstitial flow forces to cells in a three-dimensional culture, mimicking those experienced by tumor cells within the interstitium. See Integr Biol (Camb) 2013; 5(11): 1334-43 for details. Briefly, cells were suspended in type I collagen (4 mg/ml), exposed to fluid flow forces via a Darcy flow apparatus (4 h), permitted to migrate for 24 h (without flow) through Transwell chambers (with 8μm pore filters) towards 1 nM TGF-α. Invasion rates were quantified by counting cells present on the underside of the filters. For these tests, only a 4 hour exposure to flow at the lowest shear stress level was applied using a 1 cm H2O hydrostatic pressure differential to drive the flow. Shear stress transmitted to the cell surface through the glycocalyx layer was estimated to be approximately 0.84 dynes/cm^2 and the interstitial flow velocity was 0.83 μm/sec as measured previously, which is in the physiologic range of tumor interstitial flows (0.1-2.0 μm/sec). In addition, baseline migration rates (without flow) for all clonal lines were determined. Based on proliferation rates, HS expression, baseline and flow-mediated migration rates, the CtGFP and shORG-8 cell lines were selected as a paired match for continued experimentation.

Molecule	normalized migration response to interstitial flow with MAPK signaling inhibitors	migration response to interstitial flow following GAG enzymatic cleavage (FIG. 4)	migration response to interstitial flow following GAG enzymatic cleavage (FIG. 4, listed as heparinase)	migration response to interstitial flow following GAG enzymatic cleavage (FIG. 4, listed as Hyaluronidase)
O=C1c2ccccc2-c2n[nH]c3cccc1c23 [JNK Inhibitor II, reference compound]	inhibited flow-induced enhancement of migration			
C[S+]([O-])c1ccc(-c2nc(-c3ccncc3)c(-c3ccc(F)cc3)[nH]2)cc1 (stereo not shown) [SB 203580, reference compound]	inhibited flow-induced enhancement of migration			
N#CC(=C(/N)Sc1ccccc1N)/C(C#N)=C(\N)Sc1ccccc1N [U0126, reference compound]	inhibited flow-induced enhancement of migration			
heparinase III		greatly suppressed	significantly inhibit	
hyaluronidase		greatly suppressed		significantly inhibit
